In US20040152785A1, “Novel crystal of n-hydroxy-2 (s)-methyl-5-ethoxymethoxy-4(s)-[n-(4-phenoxyphenylcarbonyl)amino] pentanamide, process for their production and medicines containing the crystals as the active ingredient” (priority 2000, published 2004):

Tests used:
[1] = Stability test: preservation of crystal powder, DSC caloric transition (ΔH) and X-ray diffraction; format: physicochemical
Method: Weighing out over approximately 50 mg of type-A crystal powder, it was preserved under the condition of
1) 40° C., 75% RH (relative humidity), unsealed for a month,
2) 40° C., sealed tightly for 6 months.
The type-A crystal preserved under above conditions and another type-A crystal which was preserved at 5° C. were subjected to measurement of differential scanning calorimetry (DSC) and caloric transition (ΔH) per 1 g was calculated from endothermic peak chart (see FIGS. 14-16)
ΔH=peak area/sample weight

[2] = Oral absorption test: capsule formulations given orally to fed beagles, concentration in plasma; format: in vivo; details: beagle, 50 mg/kg
Method: The compound of the present invention (2 g), DK ester SS (Daiichi Kogyo Seiyaku) and lactose (2.9 g) were weighed and the mixture was mixed slightly in a mortar and the mixture was filtered through 60 mesh strainer twice to give pharmaceutical powder. The pharmaceutical powder was filled in No.0 gelatin capsule 250 mg/cap each. By this method, capsule formulations containing type-A and type-C crystal were prepared respectively.
A beagle was fed with solid food (240 g) and after 30 minutes above prepared capsules were administered in a stomach using sonde for oral administration and tap water (20 ml) was administered with sonde for oral administration.
After administration, 15 minutes, 30 minutes, 1 hour, 2 hours and 3 hours taken a blood of 1 ml from cephalic vein using heparin dealt syringe. The taken sample was disposed under 12000 rpm for 2 minutes and plasma was separated and the concentration of the compound in plasma (μg/ml) was measured.
The dose given to the beagle was 50 mg/kg and 4 beagles for type-A crystal and 3 beagles for type-C crystal.

matrix metalloproteinase = details: as disclosed in WO 99/19296; cited from earlier work

CCOCOC[C@H](C[C@H](C)C(=O)NO)NC(=O)c1ccc(Oc2ccccc2)cc1 [Type-A crystal, N-hydroxy-2(S)-methyl-5-ethoxymethoxy-4(S)-[N-(4-phenoxyphenylcarbonyl)amino]pentanamide]
ΔH (calorie variation of endothermic peak, absolute value) ([1]; 1 month, 40° C.-75% RH, unsealed): 14.80 J/g | ΔH (calorie variation of endothermic peak, absolute value) ([1]; 6 months, 40° C., sealed tightly): 13.41 J/g | crystal stability (crystal transition on preservation) ([1]; 40° C.-75% RH a month and 40° C. 6 months, DSC and X-ray diffraction): stable crystal | ΔH (calorie variation of endothermic peak, absolute value) ([1]; initial (type-A crystal preserved at 5° C.)): 13.40 J/g | concentration in plasma, comparison of crystals [2]: higher concentration in plasma than type-C crystal | AUC ([2]; dog, plasma, po, AUC (area under the blood concentration-time curve), average value, sampling up to 3 hours): 5100 ng·h/mL | Cmax ([2]; dog, plasma, po, plasma, read-out: Cmax (maximum drug concentration), average value): 3600 ng/mL

CCOCOC[C@H](C[C@H](C)C(=O)NO)NC(=O)c1ccc(Oc2ccccc2)cc1 [Type-C crystal, N-hydroxy-2(S)-methyl-5-ethoxymethoxy-4(S)-[N-(4-phenoxyphenylcarbonyl)amino]pentanamide, reference compound]
Cmax (maximum drug concentration), average value ([2]; plasma): 2000 ng/mL | AUC (area under the blood concentration-time curve), average value ([2]; plasma, sampling up to 3 hours): 3500 ng·h/mL

CCOCOC[C@H](C[C@H](C)C(=O)NO)NC(=O)c1ccc(Oc2ccccc2)cc1 [compound (I), N-hydroxy-2(S)-methyl-5-ethoxymethoxy-4(S)-[N-(4-phenoxyphenylcarbonyl)amino]pentanamide]
inhibitory activity against matrix metalloproteinase (MMP) (matrix metalloproteinase): has an inhibitory activity against matrix metalloproteinase
